The results in this text go back to patent US20230061859A1, “PYRIDO[2,3-D]PYRIMIDINE HIV-1 REVERSE TRANSCRIPTASE INHIBITOR WB3, PREPARATION METHOD AND APPLICATION THEREOF” (SHAN DONG UNIVERSITY, priority 2020, published 2023).

Series [1] relates to HIV-1 NL4-3 (wild-type HIV-1 viral strain). In words: Anti-HIV activity, luciferase single-round infection of TZM-bl cells, NL4-3. The series is classed as cell-based. The following applies: Human immunodeficiency virus 1, NL43, wild-type HIV-1 NL4-3. As to the method:
(§1) The target compound WB3 was evaluated its activity against HIV-1 NL4-3, HIV-1 mutant strains GH9 (K101P+K103N+V108I), RV1 (K101E+Y181V), RV2 (K101E+Y181C+G190A), RV3 (K101E+Y181C+E138K), RV4 (L100I+M230I) and RV5 (M230L). Rilpivirine (RPV) was selected as control drug.
(§2) Inhibition of HIV-1 infection was measured as reduction in luciferase gene expression after a single round of virus infection of TZM-bl cells. Briefly, 200 TCID50 of virus (NL4-3, GH9, RV-1, RV-2, RV-3, RV-4 and RV-5) was used to infect TZM-bl cells in the presence of various concentrations of compounds. Two days after infection, the culture medium was removed from each well and 100 μL of Bright Glo reagent (Promega, Luis Obispo, Calif.) was added to the cells for measurement of luminescence with a Victor 2 luminometer. […] The cytotoxicity of compounds was determined using a colorimetric 2,3-bis-(2-methoxy-4-nitro-5-sulfophenyl)-2H-tetrazolium-5-carboxanilide (XTT) assay. An amount of 100 μL of the test compounds at graded concentrations was added to equal volumes of cells (5×10^5/mL) in wells of a 96-well plate. Incubation at 37° C. for four days, then 50 μL of XTT solution (1 mg/mL) containing 0.02 μM phenazine methosulfate (PMS) was added. After four hours, the absorbance at 450 nm was measured with an ELISA reader. The CC50 values were calculated using the CalsuSyn computer program as described above.

In series [2] the test system is HIV-1 mutant strain GH9 (K101P+K103N+V108I). In words: Anti-HIV activity, luciferase single-round infection of TZM-bl cells, GH9. The series is classed as cell-based. The following applies: for EC50: Human immunodeficiency virus 1, TZM-bl, read-out: EC50 GH9. As to the method: as §1, §2
For series [3], the system named is HIV-1 mutant strain RV1 (K101E+Y181V). In words: Anti-HIV activity, luciferase single-round infection of TZM-bl cells, RV-1. Type of series: cell-based. The following applies: Human immunodeficiency virus 1, TZM-bl, read-out: EC50 RV-1. As to the method: as §1, §2
The test system of series [4] is HIV-1 mutant strain RV2 (K101E+Y181C+G190A). In words: Anti-HIV activity, luciferase single-round infection of TZM-bl cells, RV-2. The series is classed as cell-based. The following applies: Human immunodeficiency virus 1, TZM-bl, read-out: EC50 RV-2. As to the method:
as §1, §2

Series [5] relates to HIV-1 mutant strain RV3 (K101E+Y181C+E138K). In words: Anti-HIV activity, luciferase single-round infection of TZM-bl cells, RV-3. Type of series: cell-based. The following applies: Human immunodeficiency virus 1, TZM-bl, read-out: EC50 RV-3. As to the method: as §1, §2
For series [6], the system named is HIV-1 mutant strain RV4 (L100I+M230I). In words: Anti-HIV activity, luciferase single-round infection of TZM-bl cells, RV-4. The following applies: Human immunodeficiency virus 1, TZM-bl, read-out: EC50 RV-4. Type of series: cell-based. As to the method:
as §1, §2

Series [7] has as its system HIV-1 mutant strain RV5 (M230L). In words: Anti-HIV activity, luciferase single-round infection of TZM-bl cells, RV-5. The series is classed as cell-based. The following applies: Human immunodeficiency virus 1, TZM-bl, read-out: EC50 RV-5. As to the method: as §1, §2
The next series can be described thus: Cytotoxicity, XTT assay. Type of series: cell-based. The following applies: human, mock-infected TZM-bl cells. As to the method:
as §2
A general note: Formazan colour is commonly taken as a measure of viable cells.

Series [8] is described as follows: Pharmacokinetics by single iv and po administration in Wistar rats. The series is classed as in vivo. As to the method: Then, WB3 was evaluated its pharmacokinetics profiles by single iv and po administration in Wistar rats. […] These favorable PK results are sufficient to support the ability of WB3 to become an orally bioavailable NNRTIs drug candidate.
All the samples were then centrifuged at 8000 rpm for 8 min to separate plasma, which was stored at −78° C. until analysis. […] Standard curves for WB3 in blood were generated by the addition of various concentrations of WB3 together with internal standard to blank plasma.
The plasma pharmacokinetic data were analyzed by using the […] of DAS 2.0 pharmacokinetic program. The main pharmacokinetic parameters (Cmax, AUC, Tmax, T1/2, and CL) were calculated.

SMILES strings stand for the structures.

What is called EC50 is the concentration giving half of the maximal effect. The term CC50 denotes the concentration at which the toxic effect on the cells reaches its halfway point. The low end stands for harm at low concentration, the high end for better tolerance by the cells. As to `Cc1cc(/C=C/C#N)cc(C)c1Nc1ccnc(Nc2ccc(C#N)cc2)n1` [RPV, Rilpivirine, reference compound], the 50% effective concentration (EC50) in [1] is 0.96 ± 0.3 nM; in series [2], over 273 nM; in series [3] it was 45.6 ± 12.6 nM; in series [4], 24.3 ± 5.73 nM; in series [5], 88.1 ± 37.4 nM; in series [6], 9.82 ± 2.35 nM. Besides, the EC50 in series [7] was 10.4 ± 3.27 nM. In addition, the CC50 at 4 days in the series “Cytotoxicity, XTT assay” is over 341 nM.

The Cmax is the maximum level reached in the sampled fluid or tissue. Turning to `Cc1cc(/C=C/C#N)cc(C)c1Oc1nc(NC2CCN(Cc3ccc(S(C)(=O)=O)cc3)CC2)nc2ncccc12` [WB3], the EC50 in series [1] is 1.16 nM; in [2], 1.37 nM; in series [3], 18.3 ± 5.8 nM; in series [4] it was 29 ± 10.9 nM; in series [5] it was over 106 nM; in [6] it was 9.32 ± 2.46 nM. Moreover, in series [7], the EC50 stood at 6.15 ± 2.29 nM. Besides, the “fold potency versus rilpivirine against GH9” value in series [2] (EC50 ratio to rilpivirine, GH9 strain) is “up to 200 fold”. The same molecule registered a CC50 at 4 days in the series “Cytotoxicity, XTT assay” of over 44 nM. Further, the CL in series [8] (iv 2 mg/kg (Table 2)) was found to be 20.6 ± 4.50 mL. Also, the Cmax in series [8] (male, rat, plasma, iv 2 mg/kg) came to 1490 ng/mL.
